Usually GI50 stands for the concentration giving 50% growth inhibition. Broadly, the TGI is the concentration giving total growth inhibition.

Structures are written as SMILES. Values joined by “and” are separate entries in the source; they are usually repeats but may differ in a detail not shown here. Equal values may be shown once.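 Exposure lasted 48 hours, with cells grown in 96-well plates and compounds tested at five concentrations. GI50: concentration for 50% inhibition of growth. Definition used: TGI = concentration required for complete inhibition of growth.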 Residues, ends and D or L forms follow the SMILES beside them. *: point of attachment. Cbz = O=C(OCc1ccccc1)*

For the experiment, the system named is MDA-MB-468 breast. Kind of experiment: DTP human tumour cell line panel, 48 h.

Take `O=C(O)c1cn(C2CC2)c2cc(N3CCN(Cc4c(O)ccc5ccccc45)CC3)c(F)cc2c1=O`: the GI50 is 15200 nM and the TGI is greater than 100000 nM.
For `Cc1ccsc1-c1ccc2c(c1)COC2(CCCN(C)C)c1ccc(F)cc1` (stereo not given), in that order: 1580 nM and 3060 nM.
As to `CN1CCN(Cc2ccc(NC(=O)c3cncc(C#Cc4cnc5ccc(OC6CCOCC6)nn45)c3)cc2C(F)(F)F)CC1`, the GI50 is 105 nM and the TGI was 278 nM.
Take `Oc1ccccc1/C=N\NC(=S)N/N=C/c1ccccc1O`: the GI50 is 2240 nM and the TGI came out at 30500 nM.
Consider `C=C1C(=O)O[C@H]2[C@H]1CC/C(CNC(=O)/C=C/c1ccccc1F)=C\CC[C@@]1(C)O[C@@H]21`, for which the GI50 is 493 nM and the TGI came out at 1960 nM.
In the case of `Cc1cccc(Cl)c1NC(=O)c1cnc(Nc2cc(N3CCOCC3)cc(S(C)(=O)=O)c2)s1`, the GI50 is 1470 nM and the TGI was determined as 8030 nM.
Take `CN(C)CCS(=O)(=O)Nc1cc(-c2ccc3ncc(C#N)c(Nc4ccc(F)c(Cl)c4)c3c2)cnc1Cl`: the GI50 was 58.3 nM and the TGI amounted to 233 nM.
Take `NC(=O)c1cc(Br)ccc1NC(=O)/C=C/c1ccccc1`: the GI50 is 837 nM and the TGI is 4320 nM.
For the molecule `Cc1sc2c(c1C)C(c1ccc(Cl)cc1)=N[C@@H](CC(=O)NCCCN1CCN(C)CC1)c1nnc(C)n1-2`, the GI50 is 197 nM and the TGI was greater than 100000 nM.
Turning to `Cn1c(=O)c(Oc2ccc(F)cc2F)cc2cnc(NC3CCOCC3)nc21`, the GI50 is greater than 25000 nM and the TGI is greater than 25000 nM.
As for `COc1cc(/C=C/C(=O)c2c(-c3ccc(F)cc3)nc3sc(C)nn23)cc(OC)c1OC`, the GI50 is 1920 nM and the TGI stood at 7740 nM.
Turning to `CC/C=C\C[C@H](O)C/C=C1/C(=O)C=C[C@@H]1C/C=C\CCCCO`, the GI50 was 1970 nM and the TGI turned out to be 4650 nM.
`COc1cc2nc3cc([N+](=O)[O-])ccc3c(NCCNCC(C)O)c2cc1OC` (stereo not given): the GI50 was 203 nM and the TGI was 542 nM.
`NCCSC(c1ccccc1)(c1ccccc1)c1ccccc1`: the concentration for 50% growth inhibition (GI50) was 357 nM and the TGI turned out to be 1630 nM.
For `CC(C)Cc1ccc(C(C)C(=O)NCc2ccc(Cn3c(=O)sn(CCCI)c3=O)cc2)cc1` (stereo not given), in that order: 423 nM and 1620 nM.
On to `O=[N+]([O-])c1ccc2c(c1)C(c1ccccc1Cl)=Nc1c(n[nH]c1-c1cccnc1)N2`, for which the GI50 was greater than 25000 nM and the concentration for total growth inhibition (TGI) is greater than 25000 nM.
Turning to `Cc1ccc(OCCOCCOCCOCCOCCOc2ccc(C)n(O)c2=S)c(=S)n1O`, the GI50 was 36.8 nM and the TGI was found to be 412 nM.
Consider `CN(C)Cc1c(C(=O)NCCOc2ccc(C(=O)NO)cc2)oc2ccccc12`, for which the GI50 was 152 nM and the TGI is 2360 nM.
For `N#CC1=C(N)Oc2c(sc3c(Br)cccc23)C1c1ccc(Cl)cc1` (stereo not given), in that order: 521 nM and 3200 nM.
Turning to `COc1ccc2c(c1)C(c1cc(OC)c3c(c1)OCO3)C1=C(COC1=O)N2` (stereo not given), the GI50 is 205 nM and the TGI is 849 nM.
The like results for `O=S(=O)(NCCCNc1cc(-c2cn(-c3ccccc3)nc2-c2cccc(O)c2)ccn1)c1ccc(Br)cc1` were, in that order, 1540 nM and 5610 nM.
`COC(=O)CNc1nc(N(C)O)nc(N(C)O)n1`: the GI50 was 2160 nM and the total growth inhibition concentration (TGI) worked out at 17400 nM.
On to `CC(C)C[C@@H](C=O)NC(=O)[C@H](CC(C)C)NC(=O)[C@H](CC(C)C)NC(=O)OCc1ccccc1` (Cbz-Leu-Leu-Leu-aldehyde), for which the GI50 was 249 nM and the TGI is 663 nM.
On to `Cc1ccccc1C(C(=O)NC1CCCCC1)N(C(=O)CNc1ncccc1F)c1cccc(F)c1` (stereo not given), for which the GI50 was greater than 65600 nM and the concentration for total growth inhibition (TGI) is greater than 100000 nM.
With `C=CC(=O)Nc1cccc(Oc2nc(Nc3ccc(N4CCN(C)CC4)cc3OC)ncc2Cl)c1`, the GI50 is 113 nM and the TGI stood at 518 nM.
For `C=C1CC2C3C=C(C)C4=CC(=O)CC[C@]4(C)C3CC[C@]2(C)[C@@]1(OC(C)=O)C(C)=O` (stereo not given in full), in that order: 3230 nM and greater than 100000 nM.
For `COc1ccc(-c2[nH]nc(N)c2-c2cc(OC)c(OC)c(OC)c2)cc1`, the GI50 is 36.8 nM and the TGI stood at 6230 nM.
With `NC(=O)n1c(=O)n(-c2cccc(C(F)(F)F)c2)c(=O)c2cc(-c3ccc(F)cc3F)ccc21`, the GI50 was 1840 nM and the TGI worked out at 5830 nM.
For `C=CCOC(=O)Nc1cccn([C@H](CC(C)C)C(=O)NCCC(C)C)c1=O`, in that order: 42400 nM and greater than 100000 nM.
On to `Cc1[nH]nc2ncc(C(=O)N3CCC[C@H]3c3ccc(Cl)cc3)cc12`, for which the GI50 is 33300 nM and the TGI was greater than 100000 nM.
Take `CC(=O)N[C@@H](Cc1ccc(OP(=O)(O)O)cc1)C(=O)N[C@H]1CCC(=O)N2CCC[C@@H](C(=O)NCc3ccccc3)N2C1=O`: the GI50 was greater than 25000 nM and the TGI was greater than 25000 nM.
As for `COc1ccc(Cn2cc3c(c2-c2cc(OC)c(OC)c(OC)c2)CCc2c(CO)noc2-3)cc1`, the GI50 is 307 nM and the TGI is 18900 nM.
Take `NC(N)=Nc1ccc(/C=C2\C=Cc3ccccc32)cc1`: the GI50 was 148 nM and the TGI came out at 969 nM.
`CN(C)CCOc1ccccc1NC1=C(Cl)C(=O)C(Nc2ccccc2OCCN(C)C)=C(Cl)C1=O`: the GI50 was 579 nM and the total growth inhibition concentration (TGI) was determined as 1170 nM.
For `COc1cc(C2CC(=O)Nc3c2c(C)nn3-c2nc3ccccc3[nH]2)cc(OC)c1O` (stereo not given), in that order: 2370 nM and 7090 nM.
As to `Cc1[nH]c(C(=O)Nc2ccccc2OCc2cccc(C(=O)NC3CCNC3)c2)c(Cl)c1Cl` (stereo not given), the GI50 was 1890 nM and the TGI is 3600 nM.
On to `Cc1ccccc1C(C(=O)NC1CCCCC1)N(C(=O)CNc1ccc(C#N)cc1)c1cccc(F)c1` (stereo not given), for which the GI50 is 25700 nM and the TGI was greater than 100000 nM.
As for `Cn1cc(C2=C(c3cn(CCCCCO)c4ccccc34)C(=O)NC2=O)c2ccccc21`, the GI50 is 3470 nM and the TGI amounted to 14100 nM.
As for `C[C@H]1CCC/C=C/[C@@H]2C[C@H](O)C[C@H]2[C@H](O)/C=C/C(=O)O1`, the GI50 is 31.2 nM and the TGI amounted to 268 nM.
With `COC(=O)[C@@H](C)C[C@H](Cc1ccccc1)NC(=O)c1csc([C@@H](C[C@H](C(C)C)N(C)C(=O)[C@@H](NC(=O)[C@H]2CCCN2C)C2CC2)OC(C)=O)n1`, the GI50 was 0.328 nM and 2.5 nM; the TGI is greater than 25000 nM.
Take `CC1Cc2ccccc2N1C(=O)Cc1nc(N2CCOCC2)cc(=O)[nH]1` (stereo not given): the GI50 was 2060 nM and 5780 nM; the TGI was 17100 nM and 47500 nM.
Consider `CCNCCNc1cc(-c2ccc(C(F)(F)F)cc2)c(C#N)c2nc3cc(Cl)c(Cl)cc3n12`, for which the GI50 is 1830 nM and the TGI came out at 3390 nM.
For `CCCN(CCC)c1ccc(C=O)c(C)c1`, in that order: 1980 nM and 32500 nM.
As to `O=C1c2c(Cl)c(Cl)c(Cl)c(Cl)c2C(=O)C2(Cl)CC=CCC12Cl` (stereo not given), the GI50 is 1210 nM and the TGI was 2880 nM.
For `O=C1CC(N2C(=O)/C(=C/C(Cl)=C\c3ccc([N+](=O)[O-])cc3)SC2=S)C(=O)N1c1ccc(O)cc1` (stereo not given), in that order: 1870 nM and 5700 nM.

(Values after PubChem BioAssay (NCI).)
